Assay results from US20250213533A1 (GH RESEARCH IRELAND LIMITED, priority 2022, published 2025).

Experiments:
5-HT1A receptors = target: T1, 5-HT1A receptors (Homo sapiens, UniProt P08908); test: Radioligand binding ([3H]8-OH-DPAT) to 5-HT1A receptors in post-mortem human hippocampus membranes
T1 construct: 5-HT1A and 5-HT2A receptors in post-mortem human brain tissue from the hippocampus and frontal cortex, respectively; tissue Edinburgh Sudden Death Brain Bank; host or cells: post-mortem human hippocampus membranes
T1 sequence (P08908 1-422): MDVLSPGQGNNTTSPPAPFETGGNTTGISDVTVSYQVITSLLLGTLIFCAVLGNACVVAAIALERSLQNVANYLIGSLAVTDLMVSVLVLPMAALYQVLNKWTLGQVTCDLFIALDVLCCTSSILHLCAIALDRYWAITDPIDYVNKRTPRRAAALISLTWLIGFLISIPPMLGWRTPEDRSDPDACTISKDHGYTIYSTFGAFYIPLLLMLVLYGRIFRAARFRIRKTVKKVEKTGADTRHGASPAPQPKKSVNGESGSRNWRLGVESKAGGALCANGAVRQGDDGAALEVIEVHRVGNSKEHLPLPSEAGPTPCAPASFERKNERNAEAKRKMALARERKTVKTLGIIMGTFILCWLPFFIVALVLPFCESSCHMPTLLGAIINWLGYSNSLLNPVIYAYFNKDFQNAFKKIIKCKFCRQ

5-HT2A receptors = target: T2, 5-HT2A receptors (Homo sapiens, UniProt P28223); test: Radioligand binding ([3H]MDL-100,907) to 5-HT2A receptors in post-mortem human frontal cortex membranes
T2 construct: 5-HT1A and 5-HT2A receptors in post-mortem human brain tissue from the hippocampus and frontal cortex, respectively; tissue Edinburgh Sudden Death Brain Bank; host or cells: post-mortem human frontal cortex membranes

[1] = tested on: Salmonella typhimurium (TA98, TA100, TA1535 and TA1537); test: Bacterial mutation test, histidine-requiring strains; type: cell-based; conditions: up to 5000 μg/plate, absence and presence of rat liver S-9
Experimental: (§1) These conditions included treatments at concentrations up to 5000 μg/plate (the maximum recommended concentration according to current regulatory guidelines), in the absence and in the presence of a rat liver metabolic activation system (S-9).

[2] = Pharmacokinetics of 5-MeO-DMT and bufotenine after inhalation of 5-MeO-DMT in subjects; type: in vivo, human
[3] = tested on: Escherichia coli (WP2 uvrA pKM101); test: Bacterial mutation test, tryptophan-requiring strain; type: cell-based; conditions: up to 5000 μg/plate, absence and presence of rat liver S-9
Experimental: as §1

T2 sequence (P28223 whole entry): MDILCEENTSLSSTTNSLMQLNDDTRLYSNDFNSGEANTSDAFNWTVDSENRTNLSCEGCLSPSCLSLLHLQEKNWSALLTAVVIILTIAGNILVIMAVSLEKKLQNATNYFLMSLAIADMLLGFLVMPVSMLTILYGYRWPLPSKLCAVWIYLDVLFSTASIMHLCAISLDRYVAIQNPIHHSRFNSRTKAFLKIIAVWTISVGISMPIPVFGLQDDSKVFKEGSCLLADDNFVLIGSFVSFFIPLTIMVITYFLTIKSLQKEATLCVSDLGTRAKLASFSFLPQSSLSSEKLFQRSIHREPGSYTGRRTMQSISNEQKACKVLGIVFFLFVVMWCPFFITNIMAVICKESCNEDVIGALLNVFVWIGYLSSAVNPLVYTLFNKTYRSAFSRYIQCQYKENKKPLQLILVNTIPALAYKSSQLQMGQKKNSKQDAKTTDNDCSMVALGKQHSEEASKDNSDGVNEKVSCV

For `COc1ccc2[nH]cc(CCN(C)C)c2c1` [5-MeO-DMT], the “affinity for 5-HT1A receptors (in words)” value (5-HT1A receptors) was “high affinity”, the “affinity for 5-HT2A receptors (in words)” value (5-HT2A receptors) was “comparatively weak affinity” and the induction of mutation [1] was “did not induce mutation”. For the same molecule, the detectability in plasma ([2]; 3 hours after inhalation, 6, 12, 18 mg) was “no longer detectable”, the absorption and distribution ([2]; inhaled) was “rapid absorption and distribution” and the “pharmacokinetic measurements with uptitration dosing schemes compared with single doses” value ([2]; uptitration, inhaled) was “Substantially similar results”. For the same molecule, the induction of mutation [3] was “did not induce mutation”.
